Data taken from patent US12435081B2, “Methods of treatment using BCN057 and BCN512” (BCN Biosciences L.L.C., priority 2019, dated 2025).

Key:
[1] = test system: Panc-1 cells; assay: RealTime-Glo Annexin V Apoptosis and Necrosis Assay; type: cell-based
Protocol: FIGS. 2A and 2B depict the Annexin V Apoptosis and Necrosis Assay in Panc-1 cells. Panc-1 cells were exposed to serial dilutions of 057 in the presence or absence of the RealTime-Glo™ Annexin V Apoptosis and Necrosis Assay Reagent. The plate was incubated at 37° C./5% CO2 and luminescence (Annexin V binding) was measured over a period of 6 hours.

[2] = test system: pancreatic cancer cell lines; assay: Imaging of pancreatic cancer cell lines over time; type: cell-based; conditions: 10 uM, time 0 to 240 minutes
Protocol: FIG. 3 depicts the Effects of 10 uM BCN057 on the viability of pancreatic cancer cell lines. The images show pancreatic cancer cell lines at time 0 (FIG. 3A), 15 minutes (FIG. 3B), 30 minutes (FIG. 3C), 60 minutes (FIG. 3D), 120 minutes (FIG. 3E) and 240 minutes (FIG. 3F).

[3] = test system: pancreatic cancer cell lines; assay: ATP Lite viability assay of pancreatic cancer cell lines; type: cell-based
Protocol: FIG. 1 depicts the Effects of 5-FU and BCN057 on the viability of pancreatic cancer cell lines. The Effects of 5-FU and BCN057 on the viability of pancreatic cancer cell lines were assessed by ATP Lite assay (Perkin Elmer). 50 uM 5Fu (5Fu, n=5), 50 uM 5Fu and 2, 5, 10, and 20 uM BCN057 (5Fu+BCN057, n=5) or 2, 5, 10.20 uM CN057 (CN057, n=5). Control cells (V, n=5) The Percent Phosphorylation was calculated by dividing the average value for each condition by the average value of the control cells (V) at each time point.
FIGS. 4A and 4B show Compound H, Compound K and the results of a Viability Assay on Pancreatic Cells. […] The numeric data is also included (FIG. 4B). FIG. 5A depicts Compound H and FIG. 5B depicts Compound K.

[4] = Solubility in aqueous formulations; type: physicochemical; conditions: 30 wt % Captisol (SBE-beta-CD) and 100 mM MSA, at up to pH 4.1 or higher
[5] = test system: Wnt activity; assay: TOPFLASH assay of exosomes purified from lung organoid conditioned medium; type: cell-based, mice; conditions: irradiated organoids treated with BCN512 compared to irradiated control
Protocol: If BCN512 and related structures inhibit the activity of SRFPs, BCN512 can allow more free Wnt ligand from epithelial cells. Free Wnt ligands are secreted and transported through exosomes. To determine the role of BCN512 in pulmonary epithelium derived Wnt release, exosomes were purified from organoid conditioned medium. Purified exosomes were tested for Wnt activity by the TOPFLASH assay.
Wnt activity has also been examined in exosomes derived from human lung organoids.

[6] = test system: Wnt activity; assay: TOPFLASH assay of exosomes purified from human lung organoid conditioned medium; type: cell-based; conditions: human lung organoids irradiated (4-6 Gy), treated with BCN512, compared to irradiated control
Protocol: For the role of BCN512 in human pulmonary epithelium derived Wnt release, exosome were purified from organoid conditioned medium. Purified exosomes were tested for Wnt activity by TOPFLASH assay.

[7] = test system: lung fibrosis; assay: Fibrotic lesions in lung sections; type: in vivo; conditions: BCN512 treated (20×512) vs. vehicle (20×V), C57BL mice, day 180, five mice per group
Excerpt: Lesions were defined by local density with five mice per group assessed at day 180. This effect is observed with non-radiation induced stimuli such as LPS and cytotoxic drugs.

[8] = test system: TGFβ; assay: Histopathology of lung and cardiac muscle sections stained for TGFβ after thoracic radiation; type: in vivo, C57M Male mice
Protocol: Transforming growth factor β (TGF-β) is a central mediator of fibrogenesis. […] TGFβ is reduced when treated for the first 20 days post radiation with BCN512 at 5 mg/kg. Images D-F are cardiac muscle stains under the identical parameters above from the same animals. […] We expect the same results using non-radiation induced stimuli including LPS and cytotoxic drugs.

[9] = test system: HEK293 cells having a TCF/LEF luciferase reporter construct; assay: TCF/LEF luciferase reporter assay of canonical WNT activity; type: cell-based; conditions: after 24 hours, compared with vehicle treated cells
Protocol: These studies and observations are consistent with previous observations, specifically that WNT-catenin signaling promotes the self-renewal and differentiation of LGR5+ epithelial (lung, oral, intestinal) stem cells. Canonical WNT activity was measured in HEK293 cells having a TCF/LEF luciferase reporter construct. Luciferase activity was measured after 24 hours.

Row | solubility [4] | SMILES | fluorescence (necrosis) ([1]; over the same 6 hour period) | apoptosis (luminescence, Annexin V binding) ([1]; serial dilutions, measured over 6 hours) | morphological changes and apoptosis [2] | antineoplastic activity / proliferation of the tumor cell line [3] | exosomal Wnt activity [5] | exosomal Wnt activity [6] | lung fibrosis (number of fibrotic lesions in lung sections) [7] | TGFβ staining in lung sections ([8]; 14Gy thoracic radiation, 5 mg/kg for the first 20 days post radiation, assessed on day 90) | TGFβ staining with non-radiation induced stimuli ([8]; non-radiation induced stimuli including LPS and cytotoxic drugs) | TGFβ staining in cardiac muscle ([8]; same animals and parameters: 14Gy thoracic radiation, 5 mg/kg for first 20 days, day 90) | luciferase activity [9]
1 | excellent solubility | COc1ccc2cc(-c3nc4ccc(C)cn4c3NCc3ccco3)c(=O)[nH]c2c1 [BCN057, (3-[(Furan-2-ylmethyl)-amino]-2-(7-methoxy-2-oxo-1,2-dihydro-quinolin-3-yl)-6-methyl-imidazo[1,2-a]pyridin-1-ium)] | No change | increase with increasing concentrations | particularly apparent at 240 minutes | inhibits the proliferation of the tumor cell line |  |  |  |  |  |  | 
2 |  | O=[N+]([O-])c1ccc([S@SP3](=O)(=O)N2CCN(c3ccccc3)CC2)cc1 [BCN512, 1-[(4-nitrobenezene)sulfonyl]-4-phenyl piperazine] |  |  |  |  | several folds higher | several folds high | significant reduction | reduced | same results | significant reduction | significantly increased
